From publication PMC5715595 (British Journal of Pharmacology, 2017)
Read-outs that look alike come from different tables or passages of the source.

Legend:
Kv11.1 (hERG) channel = Kv11.1 (hERG) channel (Homo sapiens, UniProt Q12809); assay: cell-based
Method: A whole‐cell patch clamp study was performed on isolated cells at room temperature. Cells were initially clamped at −80 mV, and biphasic pulses (4.8 s at +20 mV and then for 5 s at −50 mV) were applied at a 0.067 Hz frequency. […] Peak tail current amplitudes for each concentration were measured and averaged for four consecutive stimuli. Vehicle control tested in parallel evaluated the spontaneous run‐down of hERG current over time in testing conditions and the corresponding correction was applied.

KV1.5 = biological target: T1, KV1.5 (Homo sapiens, UniProt P22460); assay: Whole-cell patch clamp on KV1.5 (IKur); format: cell-based
T1 construct: expressed in transfected cells
T1 sequence (P22460 whole entry): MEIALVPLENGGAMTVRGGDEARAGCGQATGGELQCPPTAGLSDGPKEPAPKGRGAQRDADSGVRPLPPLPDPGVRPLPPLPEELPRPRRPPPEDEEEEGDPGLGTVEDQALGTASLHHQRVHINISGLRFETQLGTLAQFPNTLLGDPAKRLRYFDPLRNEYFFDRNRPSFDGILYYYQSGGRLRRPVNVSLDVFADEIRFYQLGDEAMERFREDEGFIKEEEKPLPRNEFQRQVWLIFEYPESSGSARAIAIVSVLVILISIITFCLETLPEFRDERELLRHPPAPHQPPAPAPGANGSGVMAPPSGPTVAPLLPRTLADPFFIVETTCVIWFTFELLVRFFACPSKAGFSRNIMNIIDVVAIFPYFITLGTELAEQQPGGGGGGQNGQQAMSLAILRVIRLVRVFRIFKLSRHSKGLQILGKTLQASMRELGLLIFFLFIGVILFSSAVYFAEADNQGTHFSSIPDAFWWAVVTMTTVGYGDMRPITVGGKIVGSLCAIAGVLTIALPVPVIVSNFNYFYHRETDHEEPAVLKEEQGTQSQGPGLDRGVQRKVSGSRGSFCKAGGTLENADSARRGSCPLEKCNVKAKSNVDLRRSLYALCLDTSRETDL
Method: (§1) and CiPA Initiative Studies
(§2) =============================================================
(§3) In vitro studies on other ion channels […]
(§4) through NaV1.5, KV4.3, KV7.1/mink, Kir2.1, KV1.5, CaV1.2 and CaV3.2 channels.
(§5) 35-mm dish culture in the conditions mentioned in standard cell culture conditions. Experiments were performed with a cell density enabling isolated cells for patch clamping. Cells were continuously superfused with extracellular medium (1-2 mL∙minute-1) at room temperature.
(§6) D-glucose 10, HEPES 10 and the final pH adjusted to 7.4±0.02 with NaOH for recording NaV1.5, KV4.3, KV7.1/mink, Kir2.1, KV1.5 and CaV3.2 currents. It was (in mM): NaCl 110, KCl 4, BaCl2 20, MgCl2 1, D-glucose 20, HEPES 10 and the final pH adjusted to 7.4 ± 0.02 with NaOH for recording the CaV1.2 current. Compositions of the intracellular solution to fill the pipette are […]
(§7) Composition of intracellular solutions used to fill pipette to record currents through NaV1.5, KV4.3, KV7.1/mink, Kir2.1, KV1.5, CaV1.2 and CaV3.2 channels
(§8) Solution to fill the pipette (mM)
(§9) Creatine-phospho kinase 50 U∙mL-1
(§10) After formation of a Gigaohm seal between the patch electrodes and individual cells (pipette resistance range: 2.0 MΩ - 7.0 MΩ; seal resistance range: > 1 GΩ) the cell membrane across the pipette tip was ruptured to assure electrical access to the cell interior (whole-cell patch-configuration). In case the quality of the seal was poor, the process of seal formation was repeated with a different cell and a new pipette. As soon as a stable seal was established outward tail currents were measured upon pulses described in the Table S2. If current density was judged to be too low for measurement, another cell was recorded. […]
(§11) voltage stimulation protocol indicated in the next table continuously run until the steady-state level of block was reached.
(§12) Stimulation conditions used to record currents through NaV1.5, KV4.3, KV7.1/mink, Kir2.1, KV1.5, CaV1.2 and CaV3.2 channels
(§13) Ion channel Holding potential Pulse / duration Frequency Reference compound […]
(§14) (resting / fast / slow sweeps at one (10 mM) inactivated concentration)

Kir2.1 = biological target: T2, Kir2.1 (Homo sapiens, UniProt P63252); assay: Whole-cell patch clamp on Kir2.1 (IK1); format: cell-based
T2 construct: expressed in transfected cells
T2 sequence (P63252 1-427): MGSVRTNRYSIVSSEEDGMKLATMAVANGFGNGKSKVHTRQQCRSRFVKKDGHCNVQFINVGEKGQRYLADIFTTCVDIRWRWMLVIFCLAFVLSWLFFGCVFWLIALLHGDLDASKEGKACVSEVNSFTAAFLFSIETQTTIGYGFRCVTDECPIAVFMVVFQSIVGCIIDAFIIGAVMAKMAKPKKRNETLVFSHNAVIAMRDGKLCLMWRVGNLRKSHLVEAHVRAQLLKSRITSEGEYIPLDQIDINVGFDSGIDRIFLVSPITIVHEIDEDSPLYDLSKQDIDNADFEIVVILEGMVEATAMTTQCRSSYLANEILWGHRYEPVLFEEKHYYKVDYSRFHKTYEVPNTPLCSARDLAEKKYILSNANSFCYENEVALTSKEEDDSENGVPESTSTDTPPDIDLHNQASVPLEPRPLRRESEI
Method: as §1, §2, §3, §4, §5, §6, §7, §8, §9, §10, §11, §12, §13, §14

rabbit Purkinje fibres = assay: Action potential parameters in rabbit Purkinje fibres; format: cell-based
Method: Following a lethal dose of pentobarbital, the hearts of male New Zealand rabbits were immediately excised and immersed in a modified Tyrode solution maintained at room temperature and previously saturated with O2/CO2 (95%/5%). A piece of ventricle containing free running Purkinje fibres was fixed to the silastic bottom of an organ bath perfused with the same solution maintained at 37°C for 30 min. The preparation was then superfused with the modified Tyrode solution and stimulated for 30 min at 2 Hz and then at 1 Hz (2 ms stimulus at twice threshold). […] After a stabilization period of at least 1 h, action potentials typical for Purkinje fibres were recorded. Action potential reproducibility and stability were confirmed during a further 20 min stabilization period. […] Each was applied for 20 min to enable steady state to be reached. In addition, the emergence of early after‐depolarizations (EADs), favoured by calcium loading during the late phase 2 of the prolonged action potential, is recognized as a better marker of pro‐arrhythmic potential than APD prolongation alone.

α2B‐adrenoceptor = α2B‐adrenoceptor (Homo sapiens, UniProt P18089); assay: Affinity at α2B-adrenoceptor; format: binding
Sequence of α2B‐adrenoceptor (P18089 whole entry): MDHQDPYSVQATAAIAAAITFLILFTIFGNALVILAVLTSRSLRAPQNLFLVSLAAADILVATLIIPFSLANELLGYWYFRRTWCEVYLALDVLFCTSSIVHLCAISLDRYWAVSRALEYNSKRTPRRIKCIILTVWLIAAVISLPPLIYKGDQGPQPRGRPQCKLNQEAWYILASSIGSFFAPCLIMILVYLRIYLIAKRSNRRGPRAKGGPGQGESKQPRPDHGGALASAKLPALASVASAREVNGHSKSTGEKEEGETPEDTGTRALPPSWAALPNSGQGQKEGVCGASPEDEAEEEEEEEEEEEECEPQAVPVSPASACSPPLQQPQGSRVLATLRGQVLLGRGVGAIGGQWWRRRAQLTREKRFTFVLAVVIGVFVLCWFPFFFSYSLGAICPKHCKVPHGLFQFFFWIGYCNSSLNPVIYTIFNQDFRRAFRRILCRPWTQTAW

α2C‐adrenoceptor = α2C‐adrenoceptor (Homo sapiens, UniProt P18825); assay: Affinity at α2C-adrenoceptor; format: binding
Sequence of α2C‐adrenoceptor (P18825 whole entry): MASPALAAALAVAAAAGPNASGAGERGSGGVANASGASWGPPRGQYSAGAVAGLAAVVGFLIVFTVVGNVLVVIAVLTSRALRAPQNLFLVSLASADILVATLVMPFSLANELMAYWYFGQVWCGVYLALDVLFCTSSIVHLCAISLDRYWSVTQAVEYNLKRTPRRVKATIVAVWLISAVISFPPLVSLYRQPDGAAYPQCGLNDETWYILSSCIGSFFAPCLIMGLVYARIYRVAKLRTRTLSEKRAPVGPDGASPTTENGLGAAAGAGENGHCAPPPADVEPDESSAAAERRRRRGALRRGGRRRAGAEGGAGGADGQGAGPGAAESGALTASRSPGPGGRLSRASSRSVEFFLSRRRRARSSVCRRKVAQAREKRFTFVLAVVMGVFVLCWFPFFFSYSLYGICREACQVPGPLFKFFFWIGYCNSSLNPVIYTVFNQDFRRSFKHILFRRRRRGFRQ

[1] = in house data

Sequence of Kv11.1 (hERG) channel (Q12809 whole entry): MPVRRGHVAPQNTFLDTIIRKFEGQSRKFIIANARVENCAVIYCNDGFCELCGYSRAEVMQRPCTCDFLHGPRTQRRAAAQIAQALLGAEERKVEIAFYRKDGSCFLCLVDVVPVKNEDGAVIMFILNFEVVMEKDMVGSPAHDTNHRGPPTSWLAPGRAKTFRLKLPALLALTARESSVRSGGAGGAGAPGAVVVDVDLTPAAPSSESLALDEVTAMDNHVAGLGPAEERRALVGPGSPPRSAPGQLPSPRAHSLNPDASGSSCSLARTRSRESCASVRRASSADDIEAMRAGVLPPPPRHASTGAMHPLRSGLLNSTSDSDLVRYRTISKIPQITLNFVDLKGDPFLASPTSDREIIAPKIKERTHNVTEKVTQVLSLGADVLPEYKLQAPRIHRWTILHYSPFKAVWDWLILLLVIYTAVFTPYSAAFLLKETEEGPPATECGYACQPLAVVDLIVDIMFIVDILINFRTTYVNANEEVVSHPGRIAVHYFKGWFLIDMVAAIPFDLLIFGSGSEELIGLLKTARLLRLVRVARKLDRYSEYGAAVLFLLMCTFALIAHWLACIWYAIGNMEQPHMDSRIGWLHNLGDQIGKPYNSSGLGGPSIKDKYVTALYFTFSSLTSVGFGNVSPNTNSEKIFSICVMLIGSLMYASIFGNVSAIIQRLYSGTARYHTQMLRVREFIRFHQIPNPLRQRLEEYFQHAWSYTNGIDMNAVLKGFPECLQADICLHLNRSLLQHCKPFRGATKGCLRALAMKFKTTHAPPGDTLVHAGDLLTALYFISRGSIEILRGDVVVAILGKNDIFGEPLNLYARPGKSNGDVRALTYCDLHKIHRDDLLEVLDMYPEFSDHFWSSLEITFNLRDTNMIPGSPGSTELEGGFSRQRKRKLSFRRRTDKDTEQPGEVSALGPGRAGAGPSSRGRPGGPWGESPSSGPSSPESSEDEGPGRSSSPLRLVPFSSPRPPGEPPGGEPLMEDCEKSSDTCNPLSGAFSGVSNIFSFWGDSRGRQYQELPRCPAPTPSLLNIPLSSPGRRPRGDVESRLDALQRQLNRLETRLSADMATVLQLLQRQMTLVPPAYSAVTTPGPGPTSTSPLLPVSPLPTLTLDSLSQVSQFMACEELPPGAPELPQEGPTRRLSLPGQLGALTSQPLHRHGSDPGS

Cl.Clc1ccc(CCCOCCCN2CCCCC2)cc1 [pitolisant, 1‐{3‐[3‐(4‐chlorophenyl)propoxy]propyl}piperidine, hydrochloride]
IC50 (Kv11.1 (hERG) channel): 1.3 µM | safety margin (hERG IC50 versus free drug concentration) (Kv11.1 (hERG) channel; assuming 96% protein-binding and free concentration of […] at 40 mg maximal therapeutic dose): around 100 | IC50 (KV1.5; KV1.5 IKur, Hill curve fit with Hill coefficient of one, read-out: Fitted IC50): 13.8 µM | IC50 (KV1.5; Pitolisant IC50, KV1.5, IKur): ≥ 10 µM | IC50 (Kir2.1; Kir2.1 IK1, Hill curve fit with Hill coefficient of one, read-out: Fitted IC50): 16.5 µM | IC50 (Kir2.1; Pitolisant IC50, Kir2.1, IK1): ≥ 10 µM | effects on electrophysiological parameters of the action potential (rabbit Purkinje fibres; 1 μM): only minimal effects | change in APA (rabbit Purkinje fibres; 10 μM): −8 ± 3% | change in APD50 vs. the control (rabbit Purkinje fibres; 10 μM): −27 ± 4% | change in Vmax (rabbit Purkinje fibres; 10 μM): −17 ± 5% | change in resting RMP vs. the control (rabbit Purkinje fibres; 10 μM): −6 ± 1% | change in APD90 vs. the control (rabbit Purkinje fibres; 10 μM, non-significant): +9 ± 5% | IC50 (rabbit Purkinje fibres; Oryctolagus cuniculus, purkinje, estimated from 27% decrease in APD50 at 10 μM): ~5 µM | Ki (α2B‐adrenoceptor): 4.3 µM | Ki (α2C‐adrenoceptor): 1.2 µM | protein-binding [1]: 96%
